# Tests used:
# [1] = Pharmacokinetics assay in rats, intragastric administration, plasma by LC/MS/MS; format: in vivo, Sprague-Dawley (SD) rats; settings: both sexes, Sprague-Dawley, rat, plasma, po, SD rats, 10 mg/kg
# Experimental: Rats were used as test animals. […] The pharmacokinetic behavior of the compounds of the present invention was studied and evaluated in rats.
# 56 Healthy adult Sprague-Dawley (SD) rats, half male and half female, purchased from SINO-BRITSH SIPPR/BK LAB.
# The appropriate amount of test compounds were weighed and mixed with 1.0 mL of dimethyl sulfoxide to prepare a 1.0 mg/mL suspension.
# After an overnight fast, SD rats were administered intragastrically at a dose of 10.0 mg/kg and an administration volume of 10 mL/kg.
# The plasma samples were stored at −20° C. The rats were fed 2 hours after administration.
# Content determination of the test compounds in rat plasma after intragastrically administering at different concentrations: 50 μL of rat plasmas taken at various time points after administration were mixed with 50 μL of internal standard solution and 100 μL of methanol and mixed for 3 minutes by a vortexer. The mixture was centrifuged for 10 minutes at 13,500 rpm. 10 μL of the supernatant was taken from the plasma sample and analyzed by LC-MS/MS.
# Pharmacokinetic Parameters of the compounds of the present invention were shown as follows: […]
# [2] = molecular target: JAK1 kinase (Homo sapiens (Human), UniProt P23458); assay: Assay for inhibiting JAK1 kinase (in vitro kinase assay, HRP anti-phosphotyrosine antibody/TMB absorbance); format: biochemical; settings: 20 μM ATP, 50 minutes at room temperature; read-out: IC50 (JAK1/Bio)
# Chain of JAK1 kinase (P23458 whole entry): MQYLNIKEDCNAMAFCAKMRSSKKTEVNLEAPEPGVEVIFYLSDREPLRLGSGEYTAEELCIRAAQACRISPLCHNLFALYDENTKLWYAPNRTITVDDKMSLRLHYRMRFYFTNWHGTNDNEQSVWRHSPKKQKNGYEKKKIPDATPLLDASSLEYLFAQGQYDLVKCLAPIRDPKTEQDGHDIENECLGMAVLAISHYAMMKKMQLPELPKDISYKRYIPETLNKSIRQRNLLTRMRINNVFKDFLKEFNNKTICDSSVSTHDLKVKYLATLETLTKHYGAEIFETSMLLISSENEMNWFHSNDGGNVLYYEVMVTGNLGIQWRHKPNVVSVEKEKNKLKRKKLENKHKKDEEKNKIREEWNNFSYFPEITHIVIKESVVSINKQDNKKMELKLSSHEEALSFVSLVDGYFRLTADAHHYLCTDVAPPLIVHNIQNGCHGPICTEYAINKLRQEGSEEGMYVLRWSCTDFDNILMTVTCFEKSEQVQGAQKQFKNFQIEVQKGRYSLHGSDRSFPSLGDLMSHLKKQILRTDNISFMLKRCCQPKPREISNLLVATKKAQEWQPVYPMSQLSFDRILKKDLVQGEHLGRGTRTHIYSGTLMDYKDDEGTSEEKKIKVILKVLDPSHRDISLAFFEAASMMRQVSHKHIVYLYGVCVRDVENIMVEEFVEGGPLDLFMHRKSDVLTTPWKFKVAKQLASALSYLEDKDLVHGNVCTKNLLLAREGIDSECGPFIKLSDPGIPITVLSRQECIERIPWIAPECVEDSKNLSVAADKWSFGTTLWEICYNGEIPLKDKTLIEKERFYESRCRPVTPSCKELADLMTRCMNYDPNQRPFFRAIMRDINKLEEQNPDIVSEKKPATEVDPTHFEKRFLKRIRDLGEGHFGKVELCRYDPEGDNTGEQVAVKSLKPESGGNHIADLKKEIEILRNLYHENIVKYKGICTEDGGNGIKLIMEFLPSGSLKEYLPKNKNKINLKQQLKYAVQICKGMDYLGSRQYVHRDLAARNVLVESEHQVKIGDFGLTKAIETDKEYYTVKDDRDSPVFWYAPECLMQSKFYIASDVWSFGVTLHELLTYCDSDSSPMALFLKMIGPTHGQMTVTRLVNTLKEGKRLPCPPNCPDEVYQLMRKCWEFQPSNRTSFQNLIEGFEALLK
# Experimental: In vitro activity of compounds of the present invention for inhibiting JAK1 kinase was determined by the following method.
# IC50 values of test compounds was calculated from the data of the test compounds in inhibiting the activity of JAK1 kinase at different concentrations.
# [3] = molecular target: JAK2 kinase (Homo sapiens (Human), UniProt O60674); assay: Assay for inhibiting JAK2 kinase (in vitro kinase assay, HRP anti-phosphotyrosine antibody/TMB absorbance); format: biochemical; settings: 20 μM ATP, 50 minutes at room temperature; read-out: IC50 (JAK2/Bio)
# Chain of JAK2 kinase (O60674 whole entry): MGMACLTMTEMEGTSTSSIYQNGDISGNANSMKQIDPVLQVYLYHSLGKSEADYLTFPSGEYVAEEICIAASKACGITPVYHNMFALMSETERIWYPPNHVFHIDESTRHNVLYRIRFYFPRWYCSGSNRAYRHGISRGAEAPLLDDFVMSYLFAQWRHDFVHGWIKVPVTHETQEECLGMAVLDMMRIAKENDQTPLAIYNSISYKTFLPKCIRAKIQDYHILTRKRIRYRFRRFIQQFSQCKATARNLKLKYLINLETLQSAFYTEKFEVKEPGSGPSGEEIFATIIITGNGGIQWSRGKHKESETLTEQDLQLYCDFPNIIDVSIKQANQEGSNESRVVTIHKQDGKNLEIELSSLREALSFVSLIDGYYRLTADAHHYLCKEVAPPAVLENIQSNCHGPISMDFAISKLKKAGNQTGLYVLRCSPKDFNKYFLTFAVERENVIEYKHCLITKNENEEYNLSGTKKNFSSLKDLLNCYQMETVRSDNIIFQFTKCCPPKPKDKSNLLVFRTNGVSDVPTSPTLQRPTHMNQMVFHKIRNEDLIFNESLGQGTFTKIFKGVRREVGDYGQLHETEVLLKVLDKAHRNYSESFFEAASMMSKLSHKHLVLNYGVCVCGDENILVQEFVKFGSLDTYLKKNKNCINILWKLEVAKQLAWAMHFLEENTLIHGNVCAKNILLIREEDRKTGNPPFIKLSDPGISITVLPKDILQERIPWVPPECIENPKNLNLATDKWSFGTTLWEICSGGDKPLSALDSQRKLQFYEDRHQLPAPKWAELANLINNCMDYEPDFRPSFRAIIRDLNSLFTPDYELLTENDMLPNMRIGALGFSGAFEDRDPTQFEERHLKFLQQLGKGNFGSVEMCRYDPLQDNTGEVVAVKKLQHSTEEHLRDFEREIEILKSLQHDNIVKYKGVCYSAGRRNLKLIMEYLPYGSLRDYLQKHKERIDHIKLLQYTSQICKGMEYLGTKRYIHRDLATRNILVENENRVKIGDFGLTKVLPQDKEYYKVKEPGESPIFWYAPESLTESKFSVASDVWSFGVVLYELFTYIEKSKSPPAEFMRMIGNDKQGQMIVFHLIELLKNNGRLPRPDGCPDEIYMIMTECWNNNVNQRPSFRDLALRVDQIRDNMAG
# Experimental: In vitro activity of compounds of the present invention for inhibiting JAK2 kinase was determined by the following method.
Structure (SMILES),IC50 [2] [nM],also measured
"C[C@H](O)C(=O)N1C[C@H]2C[C@H](N(C)c3ncnc4[nH]ccc34)C[C@H]2C1 [Example 17, (S)-2-Hydroxy-1-((3aR,5R,6aS)-5-(methyl(7H-pyrrolo[2,3-d]pyrimidin-4-yl)amino)hexahydrocyclopenta[c]pyrrol-2(1H)-yl)propan-1-one]",0.2,Vd/F ([1]; read-out: Apparent Distribution Volume Vz/F): 6.2 ± 1.69 L/kg; AUC ([1]; read-out: Area Under Curve AUC): 4760 ± 1680 ng·h/mL; CL/F ([1]; read-out: Clearance CL/F): 38.7 ± 13.7 mL/min/kg; half-life ([1]; read-out: Half-Life t½ (converted)): 2.03 ± 0.82 h; Cmax ([1]; read-out: Plasma Conc. Cmax): 1480 ± 177 ng/mL
"COC(=O)CN1C[C@H]2C[C@H](N(C)c3ncnc4[nH]ccc34)C[C@H]2C1 [Example 24, methyl 2-((3aR,5S,6aS)-5-(methyl(7H-pyrrolo[2,3-d]pyrimidin-4-yl)amino)hexahydrocyclopenta[c]pyrrol-2(1H)-yl)acetate]",13,IC50 [3]: 77 nM
"CN(c1ncnc2[nH]ccc12)[C@H]1C[C@@H]2CN(CC#N)C[C@@H]2C1 [Example 26, 2-((3aR,5S,6aS)-5-(Methyl(7H-pyrrolo[2,3-d]pyrimidin-4-yl)amino)hexahydrocyclopenta[c]pyrrol-2(1H)-yl)acetonitrile]",46,–
"CN(c1ncnc2[nH]ccc12)[C@H]1C[C@@H]2CN(CCC#N)C[C@@H]2C1 [Example 27, 3-((3aR,5S,6aS)-5-(Methyl(7H-pyrrolo[2,3-d]pyrimidin-4-yl)amino)hexahydrocyclopenta[c]pyrrol-2(1H)-yl)propanenitrile]",30,–
"COc1nsc(NC(=O)N2CC[C@H]3CC(N(C)c4ncnc5[nH]ccc45)C[C@H]3C2)n1 (stereo partly drawn) [Example 38, (4aS,7aR)—N-(3-Methoxy-1,2,4-thiadiazol-5-yl)-6-(methyl(7H-pyrrolo[2,3-d]pyrimidin-4-yl)amino)hexahydro-1H-cyclopenta[c]pyridine-2(3H)-carboxamide]",–,IC50 [3]: 7 nM
"CN(c1ncnc2[nH]ccc12)[C@H]1C[C@@H]2CN(S(C)(=O)=O)C[C@@H]2C1 [Example 51, N-methyl-N-((3aR,5S,6aS)-2-(methylsulfonyl)octahydrocyclopenta[c]pyrrol-5-yl)-7H-pyrrolo[2,3-d]pyrimidin-4-amine]",100,–
"Cc1nsc(N2C[C@H]3C[C@H](N(C)c4ncnc5[nH]ccc45)C[C@H]3C2)n1 [Example 65, N-methyl-N-((3aR,5S,6aS)-2-(3-methyl-1,2,4-thiadiazol-5-yl)octahydrocyclopenta[c]pyrrol-5-yl)-7H-pyrrolo[2,3-d]pyrimidin-4-amine]",–,IC50 [3]: 179 nM
"C[C@H](O)C(=O)N1C[C@H]2C[C@@H](N(C)c3ncnc4[nH]ccc34)C[C@H]2C1 [Example 71, (S)-2-hydroxy-1-((3aR,5S,6aS)-5-(methyl(7H-pyrrolo[2,3-d]pyrimidin-4-yl)amino)hexahydrocyclopenta[c]pyrrol-2(1H)-yl)propan-1-one]",36,–
"C[C@@H](O)C(=O)N1C[C@H]2C[C@@H](N(C)c3ncnc4[nH]ccc34)C[C@H]2C1 [Example 72, (R)-2-hydroxy-1-((3aR,5R,6aS)-5-(methyl(7H-pyrrolo[2,3-d]pyrimidin-4-yl)amino)hexahydrocyclopenta[c]pyrrol-2(1H)-yl)propan-1-one]",42,–
"CN(c1ncnc2[nH]ccc12)[C@H]1C[C@@H]2CN(C(=O)[C@H](O)c3ccccc3)C[C@@H]2C1 [Example 81, (R)-2-hydroxy-1-((3aR,5S,6aS)-5-(methyl(7H-pyrrolo[2,3-d]pyrimidin-4-yl)amino)hexahydrocyclopenta[c]pyrrol-2(1H)-yl)-2-phenylethanone]",113,–
"CN(c1ncnc2[nH]ccc12)[C@H]1C[C@@H]2CN(C(=O)Cc3nn[nH]n3)C[C@@H]2C1 [Example 85, 1-((3aR,5S,6aS)-5-(methyl(7H-pyrrolo[2,3-d]pyrimidin-4-yl)amino)hexahydrocyclopenta[c]pyrrol-2(1H)-yl)-2-(2H-tetrazol-5-yl)ethanone]",80,–
"CN(c1ncnc2[nH]ccc12)[C@H]1C[C@@H]2CN(C(=O)Nc3ccn(C)n3)C[C@@H]2C1 [Example 104, (3aR,5S,6aS)-5-(methyl(7H-pyrrolo[2,3-d]pyrimidin-4-yl)amino)-N-(1-methyl-1H-pyrazol-3-yl)hexahydrocyclopenta[c]pyrrole-2(1H)-carboxamide]",109,–
"COc1cncc(NC(=O)N2C[C@H]3C[C@H](N(C)c4ncnc5[nH]ccc45)C[C@H]3C2)c1 [Example 109, (3aR,5S,6aS)-N-(5-methoxypyridin-3-yl)-5-(methyl(7H-pyrrolo[2,3-d]pyrimidin-4-yl)amino)hexahydrocyclopenta[c]pyrrole-2(1H)-carboxamide]",15,–
"Cc1cnc(NC(=O)N2C[C@H]3C[C@H](N(C)c4ncnc5[nH]ccc45)C[C@H]3C2)s1 [Example 117, (3aR,5S,6aS)-5-(methyl(7H-pyrrolo[2,3-d]pyrimidin-4-yl)amino)-N-(5-methylthiazol-2-yl)hexahydrocyclopenta[c]pyrrole-2(1H)-carboxamide]",95,–
"Cc1cc(NC(=O)N2C[C@H]3C[C@H](N(C)c4ncnc5[nH]ccc45)C[C@H]3C2)sn1 [Example 119, (3aR,5S,6aS)-5-(methyl(7H-pyrrolo[2,3-d]pyrimidin-4-yl)amino)-N-(3-methylisothiazol-5-yl)hexahydrocyclopenta[c]pyrrole-2(1H)-carboxamide]",48,–
"COC(=O)CN1C[C@@H]2[C@H](C1)[C@H]2CN(C)c1ncnc2[nH]ccc12 [Example 134, methyl 2-((1R,5S,6R)-6-((methyl(7H-pyrrolo[2,3-d]pyrimidin-4-yl)amino)methyl)-3-azabicyclo[3.1.0]hexan-3-yl)acetate]",–,IC50 [3]: 60 nM
"CN(C[C@H]1[C@@H]2CN(C(=O)C3CC3)C[C@@H]21)c1ncnc2[nH]ccc12 [Example 135, cyclopropyl((1R,5S,6S)-6-((methyl(7H-pyrrolo[2,3-d]pyrimidin-4-yl)amino)methyl)-3-azabicyclo[3.1.0]hexan-3-yl)methanone]",–,IC50 [3]: 2 nM
"CN(c1ncnc2[nH]ccc12)[C@H]1C[C@@H]2CN(C(=O)Nc3nc(O)ns3)C[C@@H]2C1 [Example 156, (3aR,5S,6aS)-N-(3-hydroxy-1,2,4-thiadiazol-5-yl)-5-(methyl(7H-pyrrolo[2,3-d]pyrimidin-4-yl)amino)hexahydrocyclopenta[c]pyrrole-2(1H)-carboxamide]",171,–

# Second part, led by results:
IC50 [2] [nM],Structure (SMILES),also measured
17,"CN(c1ncnc2[nH]ccc12)[C@H]1C[C@@H]2CN(C(=O)CNS(C)(=O)=O)C[C@@H]2C1 [Example 21, N-(2-((3aR,5S,6aS)-5-(Methyl(7H-pyrrolo[2,3-d]pyrimidin-4-yl)amino)hexahydrocyclopenta[c]pyrrol-2(1H)-yl)-2-oxoethyl)methanesulfonamide]",–
21,"CN(c1ncnc2[nH]ccc12)[C@@H]1C[C@@H]2CN(C(=O)CO)C[C@@H]2C1 [Example 23, 2-Hydroxy-1-((3aR,5R,6aS)-5-(methyl(7H-pyrrolo[2,3-d]pyrimidin-4-yl)amino)hexahydrocyclopenta[c]pyrrol-2(1H)-yl)ethanone]",–
127,"CNC(=O)N1C[C@H]2C[C@H](N(C)c3ncnc4[nH]ccc34)C[C@H]2C1 [Example 80, (3aR,5S,6aS)-N-methyl-5-(methyl(7H-pyrrolo[2,3-d]pyrimidin-4-yl)amino)hexahydrocyclopenta[c]pyrrole-2(1H)-carboxamide]",–
49,"CC(C#N)C(=O)N1C[C@H]2C[C@H](N(C)c3ncnc4[nH]ccc34)C[C@H]2C1 (stereo partly drawn) [Example 82, 2-methyl-3-((3aR,5S,6aS)-5-(methyl(7H-pyrrolo[2,3-d]pyrimidin-4-yl)amino)hexahydrocyclopenta[c]pyrrol-2(1H)-yl)-3-oxopropanenitrile]",–
50,"CN(c1ncnc2[nH]ccc12)[C@H]1C[C@@H]2CN(C(=O)C(C)(C)O)C[C@@H]2C1 [Example 83, 2-hydroxy-2-methyl-1-((3aR,5S,6aS)-5-(methyl(7H-pyrrolo[2,3-d]pyrimidin-4-yl)amino)hexahydrocyclopenta[c]pyrrol-2(1H)-yl)propan-1-one]",–
70,"CC[C@H](O)C(=O)N1C[C@H]2C[C@H](N(C)c3ncnc4[nH]ccc34)C[C@H]2C1 [Example 93, (S)-2-hydroxy-1-((3aR,5R,6aS)-5-(methyl(7H-pyrrolo[2,3-d]pyrimidin-4-yl)amino)hexahydrocyclopenta[c]pyrrol-2(1H)-yl)butan-1-one]",–
119,"Cc1ncc(NC(=O)N2C[C@H]3C[C@H](N(C)c4ncnc5[nH]ccc45)C[C@H]3C2)s1 [Example 124, (3aR,5S,6aS)-5-(methyl(7H-pyrrolo[2,3-d]pyrimidin-4-yl)amino)-N-(2-methylthiazol-5-yl)hexahydrocyclopenta[c]pyrrole-2(1H)-carboxamide]",–

# Source: patent publication US9527851B2, “Pyrrole six-membered heteroaryl ring derivative, preparation method thereof, and medicinal uses thereof” (Jiangsu Hengrui Medicine Co., Ltd., priority 2011, dated 2016)
